Laboratory results: patent publication US4596806A, “7-piperidino-1,2,3,5-tetrahydroimidazo[2,1-b]-quinazolin-2-one having platelet aggregation inhibitory activity” (Daiichi Seiyaku Co., Ltd., priority 1983, dated 1986)

Tested on: platelet aggregation due to addition of 3LL cells
Assay: Test of Inhibition of Platelet Aggregation Caused by Cancer Cells (in vitro), 3LL
Type: cell-based, C57BL/6 mouse
Procedure: Blood was taken from the abdominal vein of a 7-week-old C57BL/6 male mouse into a syringe containing 1/10 volume of a 3.13% aqueous solution of sodium citrate dihydrate as an anticoagulant. The thus prepared citrated blood sample was centrifuged at 230×g at room temperature for 7 minutes. The resulting supernatant fluid was used as PRP. The remainder was further centrifuged at 1,500×g at room temperature for 10 minutes, and the supernatant fluid was used as platelet-poor-plasma (PPP). Platelet count in PRP was adjusted to 450,000 per mm^3 by PPP. A 450 μl of PRP was placed in a reaction tube and subjected to centrifugation at 950 rpm at 30° C. About 1 minute later while continuing the centrifugation, 5 μl of a 200 mM calcium chloride aqueous solution was added to the system to a final concentration of […]. 30 seconds later, 5 μl of a saline solution of the compound (I) (dihydrochloride monohydrate) was added to the system, and additional 30 seconds later, 50 μl of a cell suspension containing 1×10^5 cells of B16 melamona BL6 (B16BL6) originated in a C57BL mouse or 50 μl of a cell suspension containing 1×10^6 cells of Lewis lung cancer (3LL) originated in a C57BL mouse was added thereto. Platelet aggregation of the sample system was determined from changes in transmittancy by use of an aggregometer. […]

O=C1CN2Cc3cc(N4CCCCC4)ccc3N=C2N1 [Compound (I), 7-piperidino-1,2,3,5-tetrahydroimidazo[2,1-b]quinazolin-2-one]
inhibition of platelet aggregation due to addition of 3LL cells (0.3 μM): partially inhibited | inhibition of platelet aggregation due to addition of 3LL cells (final concentration of 1 μM or more): completely inhibited
